Earlier results as cited in US20200268735A1, “Combination Therapy of Lasmiditan and a CGRP Antagonist for Use in the Treatment of Migraine” (Eli Lilly and Company, priority 2017, published 2020).
Like-named read-outs stand apart in the source and are kept apart here.

B1: galcanezumab: monoclonal antibody targeting calcitonin gene-related peptide (CGRP) (antibody, chains of the INN, looked up, V domains shown)
VH: QVQLVQSGAEVKKPGSSVKVSCKASGYTFGNYWMQWVRQAPGQGLEWMGAIYEGTGKTVYIQKFADRVTITADKSTSTAYMELSSLRSEDTAVYYCARLSDYVSGFGYWGQGTTVTVSS
VL: DIQMTQSPSSLSASVGDRVTITCRASKDISKYLNWYQQKPGKAPKLLIYYTSGYHSGVPSRFSGSGSGTDFTLTISSLQPEDFATYYCQQGDALPPTFGGGTKVEIK

Key:
[1] = SAMURAI, lasmiditan 200 mg, p<0.001
[2] = SPARTAN, lasmiditan 200 mg, p<0.001
[3] = for reduction in mean monthly migraine headache days: placebo 2.3 days

| Molecule | proportion of patients headache pain-free at 2 hours post-first dose ([1]; placebo 15.3%) [%] | proportion of patients most bothersome symptom (MBS)-free at 2 hours post-first dose ([1]; placebo 29.5%) [%] | proportion of patients headache pain-free at 2 hours post-first dose ([2]; placebo 21.3%) [%] | proportion of patients most bothersome symptom (MBS)-free at 2 hours post-first dose ([2]; placebo 33.5%) [%] | severity of most treatment-emergent adverse events (after the first dose) | headache pain-free and MBS-free endpoints, other dose groups compared to placebo (lasmiditan 100 mg, 50 mg, both endpoints) | most frequently reported TEAEs after the first dose (≥2% and greater than placebo) | adverse events significantly more frequent versus placebo ([3]; 240 mg group) | all key secondary endpoints versus placebo ([3]; both doses (120 and 240 mg)) | adverse events significantly more frequent versus placebo ([3]; both galcanezumab doses) | reduction in mean monthly migraine headache days ([3]; galcanezumab 120 mg once monthly) [days] | reduction in mean monthly migraine headache days ([3]; galcanezumab 240 mg once monthly) [days] | most common treatment-emergent adverse event ([3]; reported at similar rates in all treatment groups) |
| --- | --- | --- | --- | --- | --- | --- | --- | --- | --- | --- | --- | --- | --- |
| CN1CCC(C(=O)c2cccc(NC(=O)c3c(F)cc(F)cc3F)n2)CC1 [lasmiditan, 2,4,6-trifluoro-N-[6-(1-methyl-piperidin-4-ylcarbonyl)-pyridin-2-yl]-benzamide] | 32.2 | 40.7 | 38.8 | 48.7 | mild-to-moderate | significance was also noted | dizziness, paresthesia, somnolence, fatigue, nausea, and lethargy | – | – | – | – | – | – |
| B1 | – | – | – | – | – | – | – | significantly more injection site erythema | superior to placebo | significantly more injection site reactions and injection site pruritus | 4.3 | 4.2 | Injection site pain |
